From patent US9096593B2, “Compounds and methods for kinase modulation, and indications therefor” (Plexxikon Inc., priority 2009, dated 2015)

Assay: Turbidity assay of relative solubility in aqueous buffers
Format: physicochemical
Settings: for turbidity threshold (L, M, H) 1.4: pH 1.4 as headed (method: SGF pH 1.5); for turbidity threshold (L, M, H) 4.5: pH 4.5 (SIF); for turbidity threshold (L, M, H) 6.8: pH 6.8 (SIF); for turbidity threshold (L, M, H) 7.4: pH 7.4 (HEPES)
Method: As an indication of relative solubility, the turbidity of compounds in aqueous solutions is assessed. To assess possible compound properties in different physiological compartments, such as stomach, intestine, and blood, a series of aqueous buffers with varying pH is used. Thus each compound is diluted into four different physiologically relevant buffers and solution turbidity is measured by spectrophotometry.
Compounds are dissolved at a concentration of 25 mM in dimethyl sulfoxide, then serially diluted 1:1 into a 96 well plate, diluting 10 times in pure dimethyl sulfoxide, with the final well of each row a dimethyl sulfoxide blank. In an assay plate, 99 μL of appropriate buffer is added to each well, and 1 μL of each sample dilution is added to the buffer, achieving a range of final total concentrations in aqueous solutions having different pH. The buffers used are Simulated Gastric Fluid (SGF-pH 1.5) 0.5M NaCl, pH 1.5; Simulated Intestinal fluid (SIF-pH 4.5 and pH 6.8) 0.05M NaH2PO4, pH 4.5 and 6.8; and Hepes Buffer (HEPES-pH 7.4) 10 mM HEPES, 150 mM NaCl, pH 7.4. Control compounds pyrene, estriol and propranolol HCl are also assessed. Plates are spun and then mixed for 1 minute, and the absorbance is read using a Tecan Safire II to read wavelengths in the visible range (490, 535, and 650 nm) at four locations per well, reflecting the degree of turbidity present. The average optical density for each wavelength in each well is graphed vs. compound concentration, and the concentration at which the curve crosses a threshold O.D. of 0.01 for each wavelength is reported as the endpoint turbidity assay result. The average of the three wavelengths is used to compare turbidity of compounds. Compounds are considered to have low solubility if the threshold concentration is <31.3 μM, moderate solubility if the threshold concentration is 31.3 μM to 250 μM, and high solubility if the threshold concentration is >250 μM.

Compound	turbidity threshold (L, M, H) 1.4	turbidity threshold (L, M, H) 4.5	turbidity threshold (L, M, H) 6.8	turbidity threshold (L, M, H) 7.4
COc1ccc(CNc2ncc(Cc3c[nH]c4ncc(C)cc34)cc2C)cn1 [Compound P-1554, (6-Methoxy-pyridin-3-ylmethyl)-[3-methyl-5-(5-methyl-1H-pyrrolo[2,3-b]pyridin-3-ylmethyl)-pyridin-2-yl]-amine]	H (high solubility if the threshold concentration is >250 μM)	H (high solubility if the threshold concentration is >250 μM)	M (moderate solubility if the threshold concentration is 31.3 μM to 250 μM)	M (moderate solubility if the threshold concentration is 31.3 μM to 250 μM)
COc1ccc(CNc2ncc(Cc3c[nH]c4ncc(C)cc34)cc2F)cn1 [Compound P-1562, [3-Fluoro-5-(5-methyl-1H-pyrrolo[2,3-b]pyridin-3-ylmethyl)-pyridin-2-yl]-(6-methoxy-pyridin-3-ylmethyl)-amine]	H (high solubility if the threshold concentration is >250 μM)	H (high solubility if the threshold concentration is >250 μM)	M (moderate solubility if the threshold concentration is 31.3 μM to 250 μM)	M (moderate solubility if the threshold concentration is 31.3 μM to 250 μM)
COc1ccc(CNc2ccc(Cc3c[nH]c4ncc(F)cc34)c(F)n2)cn1 [Compound P-1622, [6-Fluoro-5-(5-fluoro-1H-pyrrolo[2,3-b]pyridin-3-ylmethyl)-pyridin-2-yl]-(6-methoxy-pyridin-3-ylmethyl)-amine]	H (high solubility if the threshold concentration is >250 μM)	M (moderate solubility if the threshold concentration is 31.3 μM to 250 μM)	M (moderate solubility if the threshold concentration is 31.3 μM to 250 μM)	M (moderate solubility if the threshold concentration is 31.3 μM to 250 μM)
COc1ncc(F)cc1CNc1ccc(Cc2c[nH]c3ncc(NC(C)=O)cc23)c(F)n1 [Compound P-1669, N-(3-{2-fluoro-6-[(5-fluoro-2-methoxy-pyridin-3-ylmethyl)-amino]-pyridin-3-ylmethyl}-1H-pyrrolo[2,3-b]pyridin-5-yl)-acetamide]	M (moderate solubility if the threshold concentration is 31.3 μM to 250 μM)	M (moderate solubility if the threshold concentration is 31.3 μM to 250 μM)	M (moderate solubility if the threshold concentration is 31.3 μM to 250 μM)	M (moderate solubility if the threshold concentration is 31.3 μM to 250 μM)
CS(=O)(=O)Nc1cnc2[nH]cc(Cc3ccc(NCc4ccc(Cl)nc4)nc3F)c2c1 [Compound P-1679, N-(3-{6-[(6-Chloro-pyridin-3-ylmethyl)-amino]-2-fluoro-pyridin-3-ylmethyl}-1H-pyrrolo[2,3-b]pyridin-5-yl)-methanesulfonamide]	M (moderate solubility if the threshold concentration is 31.3 μM to 250 μM)	L (low solubility if the threshold concentration is <31.3 μM)	L (low solubility if the threshold concentration is <31.3 μM)	L (low solubility if the threshold concentration is <31.3 μM)
Fc1cncc(CNc2ccc(Cc3c[nH]c4ncc(Cl)cc34)c(F)n2)c1 [Compound P-2001, [5-(5-Chloro-1H-pyrrolo[2,3-b]pyridin-3-ylmethyl)-6-fluoro-pyridin-2-yl]-(5-fluoro-pyridin-3-ylmethyl)-amine]	M (moderate solubility if the threshold concentration is 31.3 μM to 250 μM)	L (low solubility if the threshold concentration is <31.3 μM)	L (low solubility if the threshold concentration is <31.3 μM)	L (low solubility if the threshold concentration is <31.3 μM)
COc1cnc2[nH]cc(Cc3ccc(NCc4cncc(F)c4)nc3F)c2c1 [Compound P-2028, [6-Fluoro-5-(5-methoxy-1H-pyrrolo[2,3-b]pyridin-3-ylmethyl)-pyridin-2-yl]-(5-fluoro-pyridin-3-ylmethyl)-amine]	H (high solubility if the threshold concentration is >250 μM)	M (moderate solubility if the threshold concentration is 31.3 μM to 250 μM)	M (moderate solubility if the threshold concentration is 31.3 μM to 250 μM)	M (moderate solubility if the threshold concentration is 31.3 μM to 250 μM)
COc1ncccc1CNc1ccc(Cc2c[nH]c3ncccc23)c(F)n1 [Compound P-2045, [6-Fluoro-5-(1H-pyrrolo[2,3-b]pyridin-3-ylmethyl)-pyridin-2-yl]-(2-methoxy-pyridin-3-ylmethyl)-amine]	H (high solubility if the threshold concentration is >250 μM)	M (moderate solubility if the threshold concentration is 31.3 μM to 250 μM)	M (moderate solubility if the threshold concentration is 31.3 μM to 250 μM)	M (moderate solubility if the threshold concentration is 31.3 μM to 250 μM)
COc1ncccc1CNc1ccc(Cc2c[nH]c3ncc(C)cc23)c(F)n1 [Compound P-2052, [6-Fluoro-5-(5-methyl-1H-pyrrolo[2,3-b]pyridin-3-ylmethyl)-pyridin-2-yl]-(2-methoxy-pyridin-3-ylmethyl)-amine]	H (high solubility if the threshold concentration is >250 μM)	L (low solubility if the threshold concentration is <31.3 μM)	L (low solubility if the threshold concentration is <31.3 μM)	L (low solubility if the threshold concentration is <31.3 μM)
COc1ncc(F)cc1CNc1ncc(Cc2c[nH]c3ncc(C)cc23)cn1 [Compound P-2061, (5-Fluoro-2-methoxy-pyridin-3-ylmethyl)-[5-(5-methyl-1H-pyrrolo[2,3-b]pyridin-3-ylmethyl)-pyrimidin-2-yl]-amine]	H (high solubility if the threshold concentration is >250 μM)	M (moderate solubility if the threshold concentration is 31.3 μM to 250 μM)	M (moderate solubility if the threshold concentration is 31.3 μM to 250 μM)	L (low solubility if the threshold concentration is <31.3 μM)
Cc1cnc2[nH]cc(Cc3ccc(NCc4cnccc4C(F)(F)F)nc3F)c2c1 [Compound P-2062, [6-Fluoro-5-(5-methyl-1H-pyrrolo[2,3-b]pyridin-3-ylmethyl)-pyridin-2-yl]-(4-trifluoromethyl-pyridin-3-ylmethyl)-amine]	H (high solubility if the threshold concentration is >250 μM)	L (low solubility if the threshold concentration is <31.3 μM)	L (low solubility if the threshold concentration is <31.3 μM)	L (low solubility if the threshold concentration is <31.3 μM)
COc1ncc(F)cc1CNc1ncc(Cc2c[nH]c3ncc(Cl)cc23)cn1 [Compound P-2064, [5-(5-Chloro-1H-pyrrolo[2,3-b]pyridin-3-ylmethyl)-pyrimidin-2-yl]-(5-fluoro-2-methoxy-pyridin-3-ylmethyl)-amine]	H (high solubility if the threshold concentration is >250 μM)	M (moderate solubility if the threshold concentration is 31.3 μM to 250 μM)	L (low solubility if the threshold concentration is <31.3 μM)	L (low solubility if the threshold concentration is <31.3 μM)
COc1cc(CNc2ccc(Cc3c[nH]c4ncc(C)cc34)c(F)n2)c(F)cn1 [Compound P-2071, (5-Fluoro-2-methoxy-pyridin-4-ylmethyl)-[6-fluoro-5-(5-methyl-1H-pyrrolo[2,3-b]pyridin-3-ylmethyl)-pyridin-2-yl]-amine]	M (moderate solubility if the threshold concentration is 31.3 μM to 250 μM)	L (low solubility if the threshold concentration is <31.3 μM)	L (low solubility if the threshold concentration is <31.3 μM)	L (low solubility if the threshold concentration is <31.3 μM)
COc1ncc(CNc2ncc(Cc3c[nH]c4ncc(C)cc34)cn2)cc1F [Compound P-2073, (5-Fluoro-6-methoxy-pyridin-3-ylmethyl)-[5-(5-methyl-1H-pyrrolo[2,3-b]pyridin-3-ylmethyl)-pyrimidin-2-yl]-amine]	H (high solubility if the threshold concentration is >250 μM)	M (moderate solubility if the threshold concentration is 31.3 μM to 250 μM)	M (moderate solubility if the threshold concentration is 31.3 μM to 250 μM)	M (moderate solubility if the threshold concentration is 31.3 μM to 250 μM)
